Experimental data reported in patent publication US9801815B2, “Galenical form for the administration of triptans by buccal transmucous means” (priority 2008, dated 2017).

Key:
[1] = intra-nasal, 20 mg (nasal spray, Imigrane); cited from earlier work
[2] = tested on: acute Cluster Headache attack; conditions: subcutaneous injection, single dosage of 6 mg, mean delay of 15 minutes; cited from earlier work
[3] = dissolution of Sumatriptan in ethanol; type: physicochemical; conditions: 2 mg, 4 mg or 6 mg of Sumatriptan for 0.75 ml of ethanol at 35%
Text: This coefficient can be modulated based on the degree of alcohol and the water/ethanol ratio that is used.

[4] = administered via the digestive tract; cited from earlier work

SMILES: CNS(=O)(=O)Cc1ccc2[nH]cc(CCN(C)C)c2c1 [Sumatriptan]
- mean bioavailability of the administered dose [1]: ≤ 10%
- remission of the acute Cluster Headache attack [2]: 75%
- dissolution in ethanol [3]: complete dissolution
- mean volume of theoretical distribution in the human body [4]: 200 L
- residual bioavailability [4]: less than 14 % of the administered dose
